Values of other authors as cited in patent EP2055233B1 (priority 2003, dated 2004).

What was measured:
[1] = in vivo, iv

CC(C)c1cccc(C(C)C)c1O [propofol, 2,6-diisopropylphenol]
plasma concentration [1]: 1000 to 10000 ng/mL | dose recovered in urine as hydroxylated and conjugated metabolites: 88%
